These are literature values, as cited in US20110008495A1, “LIQUID DIETARY SUPPLEMENT COMPOSITION” (NAWGAN PRODUCTS, LLC, priority 2009, published 2011).

For data set [1] the following is noted: midlife caffeine consumption.
Data set [2] deals with individuals diagnosed with mild to moderate Alzheimer's disease.
The subject of data set [3] is diabetic animals. As to conditions: long-term consumption in distilled water.

Consider `Cn1c(=O)c2c(ncn2C)n(C)c1=O` [caffeine], for which, in data set [1], the “risk of dementia later in life” value is given as “significantly reduces”.

For `C[N+](C)(C)CCOP(=O)([O-])OC[C@H](O)CO` [A-GPC, α-glyceryl phosphoryl choline], in data set [2] (A-GPC over a 6 month period), the “absolute magnitude of change in overall cognitive ability (Mini Mental State Exam)” value was “offset a full year of typical decline”. In addition, the “verbal memory and overall cognitive ability” value in data set [2] (A-GPC over a 6 month period vs patients not given A-GPC, 126 individuals) is “significant improvements”.

Turning to `CC(C)=CCC/C(C)=C/C=C/C(C)=C/C=C/C(C)=C/C=C/C=C(C)/C=C/C=C(C)/C=C/C=C(\C)CCC=C(C)C` [lycopene], in data set [3], the “markers of inflammation and oxidation” value is reported as “significantly decreased”; the memory performance result is listed as “significantly improved”.
